Reference: patent publication US20250134949A1, “PROMININ-1 PEPTIDE FOR TREATING LUNG INJURY” (Children's Medical Center Corporation, priority 2017, published 2025)
No end group written: not given here.

Key:
AKT = assay: PR1P induced AKT phosphorylation in Beas-2B cells with or without SU5416 (FACS); type: cell-based, human; conditions: then PR1P (125 μM) 20 min
Protocol: (§1) It was previously shown in part that PR1P binds VEGF, increases VEGF binding to VEGF receptors, and induces downstream VEGF signaling including the phosphorylation of VEGF receptor 2 and AKT. To determine whether PR1P mediation of VEGF signaling requires VEGFR2 activation, lung epithelial cells (Beas-2B) were treated with the specific VEGFR2 inhibitor SU5416 ([…]) or with vehicle alone as control for 24 hours and then exposed PR1P (125 μM) or vehicle for 20 min. Cells were then harvested and levels of phosphorylated VEGFR2 and AKT were assessed using FACS. […] These findings strongly support the notion that PR1P upregulation of VEGF signaling requires VEGFR-2 activation.
(§2) Serum-starved monolayers of Beas-2B cells were incubated in the presence or absence of SU5416 (20 μM) for 24 h on 10 cm tissue culture plates. After single washing with PBS, the cells were treated with 3 ml of starvation media in the presence of PR1P (125 […]) or vehicle as control for 20 minutes at 37° C. At the conclusion of the experiments, cells were prepared for FACS analysis using standard procedures. Cells were analyzed for levels of phosphorylated VEGFR2 and AKT using anti pAKT and pVEGFR2 antibodies (Cell signaling, Danvers MA).

VEGFR2 = assay: PR1P induced VEGFR2 phosphorylation in Beas-2B cells with or without SU5416 (FACS); type: cell-based, human; conditions: then PR1P (125 μM) 20 min
Protocol: as §1, §2

[1] = Observation of ill effects during inhalation studies; type: in vivo, mouse; conditions: 24-hour experimental period, delivered directly into the lungs; data not shown
Source text: These and similar findings led many to believe that over-expression of VEGF in the lung could be curative in emphysema (54), however, enthusiasm for this type of therapy is tempered by clinical trials using systemic VEGF therapy (41) that were complicated by systemic and pulmonary toxicities including increased vascular permeability leading to hypotension (55) and tissue and lung edema (56, 57). […] The results outlined herein raise the possibility that a strategy to use PR1P to upregulate endogenous VEGF signaling in vivo may avoid toxicity seen with alternative and more conventional forms of VEGF therapy. […] PR1P could be used to avoid complications associated with constitutive VEGF over-expression or systemic VEGF treatment by stabilizing and potentiating the signaling of local endogenous VEGF. It will be important to clearly delineate the fate and pharmacokinetics of PR1P in evaluating its toxicity potential. Because of its small size, PR1P could also be more easily packaged as cargo inside nanometer or micron sized storage vehicles for tissue or cell targeted therapy.
8 week old female C3H/HENCrl (Charles River Laboratories, Cambridge, MA) mice (22±2 g) were placed in a whole-animal nebulization chamber (14×5×8 cm) and allowed to spontaneously inhale (20 min) nebulized LPS (Salmonela enterica, Sigma-Aldrich, St. Louis, MO), PR1P, scrambled peptide (SP), or VEGF. […]

VEGFR-2 = assay: Lung cell VEGFR-2 phosphorylation after inhalation of nebulized peptide (FACS); type: in vivo, mouse; conditions: live mice, nebulized (20 min), lung cells harvested 30 minutes after end of inhalation; compared to SP
Source text: VEGF mediates cell survival and apoptosis pathways via binding to and activation of VEGFR-2 and signaling through the PI3K/AKT pathway (13). […] To evaluate the effect of PR1P on VEGF signaling in the lung, both FACS and Western blotting were used to measure the levels of phosphorylated VEGFR-2 and AKT in the human lung respiratory epithelial cell line BEAS-2B in response to treatment with PR1P, scrambled peptide (SP), or VEGF. […] To determine whether PR1P also effectively modulated VEGF signaling in the lungs of animals (i.e. whether PR1P was bioactive in-vivo) live mice were treated with nebulized VEGF, SP or PR1P (20 min) and performed FACS analysis on lung cells harvested from treated animals 30 minutes after the end of inhalation. […]
Lungs were harvested from treated animals, cut into small pieces using surgical scissors and suspended and gently stirred in 3 ml serum free BEBM containing Liberase (2 mg ml, Sigma-Aldrich, St. Louis, MO). […] Cells were subsequently washed with FACS media and analyzed by a flow cytometer (BD Biosciences, San Jose, CA, USA) running FlowJo 7.2.2, software (Tomy Digital Biology. Tokyo, Japan).

[2] = in vivo; cited from earlier work

With Cc1cc(C)c(/C=C2\C(=O)Nc3ccccc32)[nH]1 [SU5416] the “effect of PR1P on the phosphorylation level of AKT in presence of inhibitor” value (AKT) was “significantly reduced” and the “effect of PR1P on the phosphorylation level of VEGFR-2 in presence of inhibitor” value (VEGFR2) was “significantly reduced”.

In the case of DRVQRQTTTVVA [PR1P, DRVQRQTTTVVA], the “ill effects from therapy” value [1] is reported as “ill effects were not observed”.

In the case of VEGF, the “lung cell VEGFR-2 phosphorylation” value (VEGFR-2) is reported as “increased pVEGFR2”.

In the case of “elastase: porcine pancreatic elastase (PPE) used intra-tracheally to induce emphysema phenotype”, the “half-life of exogenous elastase administered into the animal lungs” value [2] is listed as “approximately 50 minutes”.
